# Strand notation (5' to 3'): a small letter for the sugar, then the base; units joined by * are phosphorothioate-linked, units joined directly phosphodiester-linked; [ ] holds rarer units or linkages, { } end groups; capitals alone tell only the bases. e = 2'-O-(2-methoxyethyl) (MOE); [5mC] = 5-methylcytosine; d = 2'-deoxy (DNA)
# How the values were obtained:
# Mouse B7-2 mRNA = Mouse B7-2 mRNA expression, screened as in Example 4; format: cell-based; set-up: % mRNA INHIBITION: concentration or dose not given beside the values; details: for % mRNA INHIBITION: screened as in Example 4; for % mRNA EXPRESSION: screened as in Example 4, basal = 100.0%
# Description: For ribonuclease protection assays, cells were harvested 18 hours after completion of oligonucleotide treatment using a Totally RNA™ kit (Ambion, Austin, Tex.). The probes for the assay were generated from plasmids pcB7-2 (linearized by digestion with Bgl II) and pTRI-b-actin (Ambion Inc., Austin, Tex.). In vitro transcription of the linearized plasmid from the SP6 promoter was performed in the presence of α-^32P-UTP (800 Ci/mmole) yielding an antisense RNA complementary to the 3′ end of B7-2 (position 1044-1391). The probe was gel-purified after treatment with DNase I to remove DNA template. Ribonuclease protection assays were carried out using an RPA II™ kit (Ambion) according to the manufacturer's directions. Total RNA (5 μg) was hybridized overnight, at 42° C., with 10^5 cpm of the B7-2 probe or a control beta-actin probe. The hybridization reaction was then treated, at 37° C. for 30 minutes, with 0.4 units of RNase A and 2 units of RNase T1. Protected RNA was precipitated, resuspended in 10 μL of gel loading buffer and electrophoresed on a 6% acrylamide gel with 50% w/v urea at 20 W. The gel was then exposed and the lanes quantitated using a PhosphorImager (Molecular Dynamics, Sunnyvale, Calif.) essentially according to the manufacturer's instructions.
# Oligonucleotides were screened as described in Example 4.
# Mouse B7-1 mRNA = Mouse B7-1 mRNA expression, screened as in Example 4; format: cell-based; set-up: % mRNA INHIBITION: concentration or dose not given beside the values; details: Table 10
substance,measurement,setting,value
18086 (antisense eG*eT*e[5mC]*eT*eA*d[5mC]*dA*dG*dG*dA*dG*dT*d[5mC]*dT*dG*eG*eT*eT*eG*eT) [compound 18086],% mRNA INHIBITION,Mouse B7-2 mRNA,59.9%
same,% mRNA EXPRESSION,Mouse B7-2 mRNA,40.1%
18087 (antisense eA*eG*e[5mC]*eT*eT*dG*d[5mC]*dG*dT*d[5mC]*dT*d[5mC]*d[5mC]*dA*d[5mC]*eG*eG*eA*eA*eA) [compound 18087],% mRNA INHIBITION,Mouse B7-2 mRNA,57.9%
same,% mRNA EXPRESSION,Mouse B7-2 mRNA,42.1%
18088 (antisense eT*e[5mC]*eA*e[5mC]*eA*d[5mC]*dT*dA*dT*d[5mC]*dA*dA*dG*dT*dT*eT*e[5mC]*eT*e[5mC]*eT) [compound 18088],% mRNA INHIBITION,Mouse B7-2 mRNA,47.7%
same,% mRNA EXPRESSION,Mouse B7-2 mRNA,52.3%
18090 (antisense eG*eT*eG*eA*eA*dG*dT*d[5mC]*dG*dT*dA*dG*dA*dG*dT*e[5mC]*e[5mC]*eA*eG*eT) [compound 18090],% mRNA INHIBITION,Mouse B7-2 mRNA,63.4%
same,% mRNA EXPRESSION,Mouse B7-2 mRNA,36.6%
18091 (antisense eG*eT*eG*eA*e[5mC]*d[5mC]*dT*dT*dG*d[5mC]*dT*dT*dA*dG*dA*e[5mC]*eG*eT*eG*e[5mC]) [compound 18091],% mRNA INHIBITION,Mouse B7-2 mRNA,62.9%
same,% mRNA EXPRESSION,Mouse B7-2 mRNA,37.1%
18092 (antisense e[5mC]*eA*eT*e[5mC]*eT*dT*d[5mC]*dT*dT*dA*dG*dG*dT*dT*dT*e[5mC]*eG*eG*eG*eT) [compound 18092],% mRNA INHIBITION,Mouse B7-2 mRNA,41.1%
same,% mRNA EXPRESSION,Mouse B7-2 mRNA,58.9%
18093 (antisense eG*eG*e[5mC]*eT*eG*dT*dT*dG*dG*dA*dG*dA*dT*dA*d[5mC]*eT*eG*eA*eA*e[5mC]) [compound 18093],% mRNA INHIBITION,Mouse B7-2 mRNA,67.3%
same,% mRNA EXPRESSION,Mouse B7-2 mRNA,32.7%
18094 (antisense eG*eG*eG*eA*eA*dT*dG*dA*dA*dA*dG*dA*dG*dA*dG*eA*eG*eG*e[5mC]*eT) [compound 18094],% mRNA INHIBITION,Mouse B7-2 mRNA,36.2%
same,% mRNA EXPRESSION,Mouse B7-2 mRNA,63.8%
18095 (antisense eA*e[5mC]*eA*eT*eA*d[5mC]*dA*dA*dT*dG*dA*dT*dG*dA*dG*e[5mC]*eA*eG*e[5mC]*eA) [compound 18095],% mRNA INHIBITION,Mouse B7-2 mRNA,65.7%
same,% mRNA EXPRESSION,Mouse B7-2 mRNA,34.3%
18096 (antisense eG*eT*e[5mC]*eT*e[5mC]*dT*d[5mC]*dT*dG*dT*d[5mC]*dA*dG*d[5mC]*dG*eT*eT*eA*e[5mC]*eT) [compound 18096],% mRNA INHIBITION,Mouse B7-2 mRNA,67.7%
same,% mRNA EXPRESSION,Mouse B7-2 mRNA,32.3%
18098 (antisense eG*eG*eA*eT*eT*dG*d[5mC]*d[5mC]*dA*dA*dG*d[5mC]*d[5mC]*d[5mC]*dA*eT*eG*eG*eT*eG) [compound 18098],% mRNA INHIBITION,Mouse B7-2 mRNA,67.8%
same,% mRNA EXPRESSION,Mouse B7-2 mRNA,32.2%
18099 (antisense eG*e[5mC]*eA*eA*eT*dT*dT*dG*dG*dG*dG*dT*dT*d[5mC]*dA*eA*eG*eT*eT*e[5mC]) [compound 18099],% mRNA INHIBITION,Mouse B7-2 mRNA,33.2%
same,% mRNA EXPRESSION,Mouse B7-2 mRNA,66.8%
18100 (antisense e[5mC]*eA*eA*eT*e[5mC]*dA*dG*d[5mC]*dT*dG*dA*dG*dA*dA*d[5mC]*eA*eT*eT*eT*eT) [compound 18100],% mRNA INHIBITION,Mouse B7-2 mRNA,32.8%
same,% mRNA EXPRESSION,Mouse B7-2 mRNA,67.2%
18101 (antisense eT*eT*eT*eT*eG*dT*dA*dT*dA*dA*dA*dA*d[5mC]*dA*dA*eT*e[5mC]*eA*eT*eA) [compound 18101],% mRNA INHIBITION,Mouse B7-2 mRNA,11.1%
same,% mRNA EXPRESSION,Mouse B7-2 mRNA,88.9%
18102 (antisense e[5mC]*e[5mC]*eT*eT*e[5mC]*dA*d[5mC]*dT*d[5mC]*dT*dG*d[5mC]*dA*dT*dT*eT*eG*eG*eT*eT) [compound 18102],% mRNA INHIBITION,Mouse B7-2 mRNA,66.2%
same,% mRNA EXPRESSION,Mouse B7-2 mRNA,33.8%
18103 (antisense eT*eG*e[5mC]*eA*eT*dG*dT*dT*dA*dT*d[5mC]*dA*d[5mC]*d[5mC]*dA*eT*eA*e[5mC]*eT*e[5mC]) [compound 18103],% mRNA INHIBITION,Mouse B7-2 mRNA,69.8%
same,% mRNA EXPRESSION,Mouse B7-2 mRNA,30.2%
18104 (antisense eA*eG*eA*eG*eA*dA*dA*d[5mC]*dT*dA*dG*dT*dA*dA*dG*eA*eG*eT*e[5mC]*eT) [compound 18104],% mRNA EXPRESSION,Mouse B7-1 mRNA,60.0%
same,% mRNA INHIBITION,Mouse B7-1 mRNA,40.0%
